From ChEMBL document CHEMBL1201862, “PubChem BioAssay data set” (2004)
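A five-concentration, 48-hour dose response in 96-well plates underlies each endpoint, interpolated linearly between surrounding concentrations. Here, GI50 denotes the concentration required for 50% inhibition of growth.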 Active and inactive are the calls of the source. No stated cut-off is given here; in the data, active = GI50 up to about 1.1 µM and inactive = higher.

Assays:
Assay in all cases: DTP human tumour cell line panel, 48 h
SNB-75 = test system: SNB-75
MDA-N = test system: MDA-N
MOLT-4 = test system: MOLT-4
SN12C = test system: SN12C
LOX IMVI = test system: LOX IMVI
COLO 205 = test system: COLO 205
HCT-15 = test system: HCT-15
786-0 = test system: 786-0
TK-10 = test system: TK-10
CCRF-CEM = test system: CCRF-CEM
HOP-92 = test system: HOP-92
NCI/ADR-RES = test system: NCI/ADR-RES
SF-295 = test system: SF-295
OVCAR-5 = test system: OVCAR-5
KM12 = test system: KM12
Hs-578T = test system: Hs-578T
RXF 393 = test system: RXF 393
IGROV-1 = test system: IGROV-1
SNB-19 = test system: SNB-19
SR = test system: SR

| SMILES | GI50 (SNB-75) | GI50 (MDA-N) | GI50 (MOLT-4) | GI50 (SN12C) | GI50 (LOX IMVI) | GI50 (COLO 205) | GI50 (HCT-15) [µM] | GI50 (786-0) | GI50 (TK-10) | GI50 (CCRF-CEM) | GI50 (HOP-92) | GI50 (NCI/ADR-RES) | GI50 (SF-295) | GI50 (OVCAR-5) | GI50 (KM12) | GI50 (Hs-578T) | GI50 (RXF 393) | GI50 (IGROV-1) | GI50 (SNB-19) | GI50 (SR) |
| --- | --- | --- | --- | --- | --- | --- | --- | --- | --- | --- | --- | --- | --- | --- | --- | --- | --- | --- | --- | --- |
| C=Cc1nc(C#N)c(N)o1 | > 100 µM (inactive) | > 100 µM (inactive) | > 100 µM (inactive) | > 100 µM (inactive) | > 100 µM (inactive) | > 100 µM (inactive) | > 100 | > 100 µM (inactive) | > 100 µM (inactive) | > 100 µM (inactive) | > 100 µM (inactive) | > 100 µM (inactive) | > 100 µM (inactive) | > 100 µM (inactive) | > 100 µM (inactive) | > 100 µM (inactive) | > 100 µM (inactive) | > 100 µM (inactive) | > 100 µM (inactive) | – |
| CC(=O)N1CN2C(=O)CCC2c2cc(C)ccc21 (stereo not given) | > 100 µM (inactive) | > 100 µM (inactive) | > 100 µM (inactive) | > 100 µM (inactive) | > 100 µM (inactive) | > 100 µM (inactive) | > 100 | > 100 µM (inactive) | > 100 µM (inactive) | > 100 µM (inactive) | > 100 µM (inactive) | > 100 µM (inactive) | > 100 µM (inactive) | > 100 µM (inactive) | > 100 µM (inactive) | > 100 µM (inactive) | > 100 µM (inactive) | > 100 µM (inactive) | > 100 µM (inactive) | – |
| N#CC(N)c1ccc(OCCCCCCCCCCOc2ccc(C(N)C#N)cc2)cc1 (stereo not given) | – | > 100 µM (inactive) | 18.6 µM (inactive) | > 100 µM (inactive) | > 100 µM (inactive) | > 100 µM (inactive) | > 100 | > 100 µM (inactive) | > 100 µM (inactive) | 13.8 µM (inactive) | > 100 µM (inactive) | 27.8 µM (inactive) | > 100 µM (inactive) | > 100 µM (inactive) | > 100 µM (inactive) | > 100 µM (inactive) | 43.2 µM (inactive) | > 100 µM (inactive) | > 100 µM (inactive) | – |
| COc1cc2ccc(C(=O)NCCCNC(=O)c3ccc4cc(OC)c(OC)cc4c3)cc2cc1OC | 32.9 µM (inactive) | > 100 µM (inactive) | – | > 100 µM (inactive) | > 100 µM (inactive) | > 100 µM (inactive) | > 100 | > 100 µM (inactive) | > 100 µM (inactive) | > 100 µM (inactive) | > 100 µM (inactive) | > 100 µM (inactive) | > 100 µM (inactive) | > 100 µM (inactive) | > 100 µM (inactive) | 36.6 µM (inactive) | – | > 100 µM (inactive) | > 100 µM (inactive) | 35.5 µM (inactive) |
| OCCCNc1[nH]cnc2nncc1-2 | > 100 µM (inactive) | > 100 µM (inactive) | > 100 µM (inactive) | > 100 µM (inactive) | > 100 µM (inactive) | > 100 µM (inactive) | > 100 | > 100 µM (inactive) | > 100 µM (inactive) | > 100 µM (inactive) | > 100 µM (inactive) | > 100 µM (inactive) | > 100 µM (inactive) | > 100 µM (inactive) | > 100 µM (inactive) | > 100 µM (inactive) | > 100 µM (inactive) | > 100 µM (inactive) | > 100 µM (inactive) | – |
| COc1ccc(NCC(=O)Nn2c(C)nc3ccc(S(=O)(=O)Nc4ccc(OC)cc4)cc3c2=O)cc1 | > 100 µM (inactive) | > 100 µM (inactive) | > 100 µM (inactive) | > 100 µM (inactive) | > 100 µM (inactive) | > 100 µM (inactive) | > 100 | > 100 µM (inactive) | > 100 µM (inactive) | > 100 µM (inactive) | > 100 µM (inactive) | > 100 µM (inactive) | > 100 µM (inactive) | > 100 µM (inactive) | > 100 µM (inactive) | > 100 µM (inactive) | – | 69.7 µM (inactive) | > 100 µM (inactive) | > 100 µM (inactive) |
| N#Cc1c(Nc2nc3ccccc3s2)c2ccccc2n2c1nc1ccccc12 | 24.5 µM (inactive) | > 100 µM (inactive) | > 100 µM (inactive) | > 100 µM (inactive) | > 100 µM (inactive) | > 100 µM (inactive) | > 100 | 29 µM (inactive) | > 100 µM (inactive) | – | > 100 µM (inactive) | 72.4 µM (inactive) | 82 µM (inactive) | > 100 µM (inactive) | > 100 µM (inactive) | 45.5 µM (inactive) | – | > 100 µM (inactive) | > 100 µM (inactive) | > 100 µM (inactive) |
